One experiment has as its system Botrytis cinerea. The experiment in a line: Antifungal activity against Botrytis cinerea AJ 117140 assessed as inhibition of fungal growth. In kind it is functional.
A further experiment concerns Globisporangium ultimum. Briefly: Antifungal activity against Pythium ultimum IFO32210 assessed as inhibition of fungal growth. In kind it is functional.
Another experiment has as its system Saprolegnia parasitica. Briefly: Antifungal activity against Saprolegnia parasitica IFO8978 assessed as inhibition of fungal growth. It is filed as functional.
For the next experiment, the system named is Aspergillus flavus. The experiment in a line: Antifungal activity against Aspergillus flavus assessed as inhibition of fungal growth. It is filed as functional, organism-based.
For another experiment, the system named is Rhodotorula glutinis. The experiment in a line: Antimicrobial activity against Rhodotorula glutinis. It is filed as functional.
The test system of experiment [1] is Saccharomyces cerevisiae. Briefly: Antimicrobial activity against Saccharomyces cerevisiae. It is filed as functional.
The subject of experiment [2] is Candida albicans. The experiment in a line: Antimicrobial activity against Candida albicans. In kind it is functional.
Experiment [3] relates to Candida albicans. Briefly: Antifungal activity against Candida albicans ATCC 24433. It is filed as functional.
For the next experiment, the system named is Nakaseomyces glabratus. The experiment in a line: Antifungal activity against fluconazole-resistant Candida glabrata by CLSI protocol based macrobroth dilution method. In kind it is functional. (In broth dilution the organism is exposed to a series of concentrations in liquid medium.)
The subject of experiment [4] is Pichia kudriavzevii. The experiment in a line: Antifungal activity against fluconazole-resistant Candida krusei by CLSI protocol based macrobroth dilution method. It is filed as functional.
The test system of a further experiment is Gaeumannomyces graminis. Briefly: Antimicrobial activity against Gaeumannomyces graminis. It is filed as functional.
Experiment [5] has as its system Colletotrichum gloeosporioides. The experiment in a line: Antifungal activity against Colletotrichum gloeosporioides. It is filed as functional.
Experiment [6] relates to Candida tropicalis. The experiment in a line: Antifungal activity against Candida tropicalis assessed as fungal growth inhibition. In kind it is functional.
The next experiment concerns Nannizzia gypsea. The experiment in a line: Antifungal activity against Microsporum gypseum ATCC31388. It is filed as functional.
The subject of experiment [7] is Aspergillus fumigatus. The experiment in a line: Antimicrobial activity against Aspergillus fumigatus. It is filed as functional.
Experiment [8] deals with Candida albicans. Briefly: Antifungal activity against Candida albicans ATCC76615 assessed as inhibition of fungal growth by atomatic microplate reader analysis. In kind it is functional.
For experiment [9], the system named is Cryptococcus neoformans. The experiment in a line: Antifungal activity against Cryptococcus neoformans ATCC32609 assessed as inhibition of fungal growth by atomatic microplate reader analysis. In kind it is functional.
In experiment [10] the test system is Aspergillus fumigatus. The experiment in a line: Antifungal activity against clinical strain Aspergillus fumigatus assessed as inhibition of fungal growth by atomatic microplate reader analysis. It is filed as functional.
The test system of a further experiment is Trichophyton rubrum. The experiment in a line: Antifungal activity against Trichophyton rubrum assessed as inhibition of fungal growth by atomatic microplate reader analysis. It is filed as functional.
The subject of experiment [11] is Candida tropicalis. Briefly: Antifungal activity against clinical strain Candida tropicalis assessed as inhibition of fungal growth by atomatic microplate reader analysis. In kind it is functional.
The test system of experiment [12] is Pichia kudriavzevii. Briefly: Antifungal activity against clinical strain Candida krusei assessed as inhibition of fungal growth by atomatic microplate reader analysis. In kind it is functional.
Experiment [13] has as its system Candida albicans. Briefly: Antifungal activity against wild type Candida albicans. It is filed as functional, organism-based.
Experiment [14] relates to Candida albicans. Briefly: Antifungal activity against amphotericin-B-resistant Candida albicans. In kind it is functional, organism-based.
For experiment [15], the system named is Cryptococcus neoformans. The experiment in a line: Antifungal activity against Cryptococcus neoformans. It is filed as functional, organism-based.
The subject of experiment [16] is Saccharomyces cerevisiae. The experiment in a line: Antifungal activity against Saccharomyces cerevisiae assessed as inhibition of fungal growth. In kind it is functional, organism-based.

Each structure is given as a SMILES string. Converted amounts (≈) assume the structure as drawn.

Turning to `C=CC1OC1(C)CC(C)/C(C)=C/C=C(C)\C=C(OC)\C(=C/C(=O)OC)OC` (stereo unspecified), the MIC was 3.1 µg/mL (≈ 8.23 µM) with Botrytis cinerea, 0.4 µg/mL (≈ 1.06 µM) in the experiment on Globisporangium ultimum and 0.1 µg/mL (≈ 0.266 µM) with Saprolegnia parasitica.
Turning to `CC[C@H](C)/C=C(C)/C=C/C1=CC2=C(Cl)C(=O)[C@@](C)(OC(C)=O)C(=O)C2=CO1`, the 50% inhibitory concentration (IC50) in the experiment with Aspergillus flavus is 3.39 µg/mL (≈ 8.67 µM).
In the case of `CO[C@H]1C(=O)N[C@]2(O)CC(=O)N(C)CC(=O)N[C@H](Cc3c[nH]c4cc(Cl)ccc34)C(=O)NCC(=O)NC[C@H](O)CC(=O)N[C@H]([C@@H](O)[C@@H](O)C/C=C/C=C/c3ccccc3)[C@@H](O)C(=O)N[C@@H]12`, the MIC was found to be 0.6 µg/mL (≈ 0.648 µM) in the experiment with Rhodotorula glutinis, 1.6 µg/mL (≈ 1.73 µM) against Saccharomyces cerevisiae [1] and 3.1 µg/mL (≈ 3.35 µM) in the experiment with Candida albicans [2].
In the experiment on Candida albicans [3], `CC(C)C[C@@H](C)[C@@H](O)[C@@H](C)C(=O)N[C@H](C)C(=O)N[C@@H](CCCNC(=N)N)[C@@H](O)[C@@H](O)C(=O)N[C@@H](C(=O)N[C@@H](C(=O)O)[C@@H](C)O)[C@@H](C)CC(N)=O` displayed an MIC of 0.07 µg/mL (≈ 0.0974 µM).
Consider `COc1cc(/C=N/O)nc(-c2ccccn2)c1` [CAERULOMYCIN A], for which the MIC in the experiment on Nakaseomyces glabratus and in the experiment with Pichia kudriavzevii [4] was 0.39 µg/mL (≈ 1.7 µM) in each case.
Turning to `CS[C@@]12CC3=CC=C[C@H](O)[C@H]3N1C(=O)[C@@H]1C[C@@H]3C(=O)CC[C@@H](O)[C@@H]3N1C2=O`, the MIC in the experiment with Gaeumannomyces graminis stood at 0.25 µg/mL (≈ 0.64 µM).
Regarding `CC(=O)O[C@@H]1C[C@H](C)[C@@]23CC=C(C)[C@@H](C2)C[C@@](C)(O)[C@@H]13`, the MIC in [5] came to 0.125 µg/mL (≈ 0.449 µM).
Take `CO[C@@H]1[C@@H](O)[C@H](O[C@@H]2[C@@H](O)[C@H](O[C@@H]3CO[C@@H](O[C@H]4CC[C@]5(C)[C@@H]6CC[C@]78C(=O)O[C@@](C)(C[C@H](CC(C)C)OC(C)=O)[C@H]7C(=O)C[C@@]8(C)C6=CC[C@H]5C4(C)C)[C@H](O[C@@H]4O[C@H](C)[C@@H](O[C@@H]5OC[C@@H](O)[C@H](O[C@@H]6O[C@H](CO)[C@@H](O)[C@H](OC)[C@H]6O)[C@H]5O)[C@H](O)[C@H]4O)[C@H]3O)O[C@H](CO)[C@H]2O)O[C@H](CO)[C@H]1O`: the MIC with Candida tropicalis [6] and in the experiment with Nannizzia gypsea was 1.4 µM (≈ 2.04 µg/mL) each time.
In turn, `COc1ccc(/C=C/CCCC[C@H](C)[C@H](O)[C@@H](O)[C@H]2NC(=O)C[C@@H](O)CNC(=O)CNC(=O)[C@@H](Cc3c(C(=O)O)[nH]c4ccccc34)NC(=O)CN(C)C(=O)C[C@H]3NC(=O)[C@H](O)[C@H]3NC(=O)[C@H]2O)cc1` yielded an MIC in the experiment on Aspergillus fumigatus [7] of 1.3 µg/mL (≈ 1.33 µM).
Turning to `CO[C@@H]1[C@@H](O)[C@H](O[C@@H]2[C@@H](O)[C@H](O[C@@H]3[C@@H](O)[C@H](O)[C@@H](O[C@H]4[C@H](O[C@H]5CC[C@@H]6C7=C[C@H](O)[C@]89C(=O)O[C@@](C)(CCC=C(C)C)[C@H]8CC[C@@]9(C)[C@@H]7CC[C@H]6C5(C)C)OC[C@@H](O[C@@H]5O[C@H](CO)[C@@H](O)[C@H](O[C@@H]6O[C@H](CO)[C@@H](O)[C@H](OC)[C@H]6O)[C@H]5O)[C@@H]4O)O[C@H]3C)O[C@H](CO)[C@H]2O)O[C@H](CO)[C@H]1O`, the MIC in the experiment on Candida albicans [8], in the experiment with Cryptococcus neoformans [9], in the experiment with Aspergillus fumigatus [10], in the experiment on Trichophyton rubrum, in the experiment with Candida tropicalis [11] and with Pichia kudriavzevii [12] was 0.7 µM (≈ 0.988 µg/mL) each time.
Turning to `CC(/C=C/c1ccccc1)=C\[C@H](O)[C@@H]1CC(=O)N[C@@H](CO)C(=O)NC2Cn3cc([n+]([C@@H]4O[C@H](CO)[C@H](O)[C@H](O)[C@H]4O)c3)CC(NC(=O)CCC[C@@H](C(=O)[O-])NC(=O)[C@@H](O)CNC(=O)[C@H](Cc3ccc(Br)cc3)NC(=O)[C@H]([C@@H](O)C(N)=O)NC(=O)[C@H](CC(N)=O)NC2=O)C(=O)N[C@@H]([C@H](C)O)C(=O)N[C@@H](CO)C(=O)N[C@@H](Cc2ccccc2)C(=O)N1` (stereo partly specified), the values for the IC50 with Candida albicans [13] and in the experiment with Candida albicans [14] were 7.84 µg/mL (≈ 4.52 µM) and 3.49 µg/mL (≈ 2.01 µM), respectively.
Regarding `CO[C@@H]1[C@@H](O)[C@H](O[C@@H]2[C@@H](O)[C@H](O[C@@H]3[C@@H](O)[C@H](O)[C@@H](O[C@H]4[C@H](O[C@H]5CC[C@@H]6C7=C[C@H](O)[C@]89C(=O)O[C@@](C)(CCCC(C)C)[C@H]8CC[C@@]9(C)[C@@H]7CC[C@H]6C5(C)C)OC[C@@H](O[C@@H]5O[C@H](CO)[C@@H](O)[C@H](O[C@@H]6O[C@H](CO)[C@@H](O)[C@H](OC)[C@H]6O)[C@H]5O)[C@@H]4O)O[C@H]3C)O[C@H](CO)[C@H]2O)O[C@H](CO)[C@H]1O`, the minimum inhibitory concentration (MIC) in the experiment with Candida albicans [8], with Cryptococcus neoformans [9], in the experiment on Aspergillus fumigatus [10], with Trichophyton rubrum, in the experiment on Candida tropicalis [11] and with Pichia kudriavzevii [12] was 0.7 µM (≈ 0.989 µg/mL) throughout.
In the case of `CCC(C)CC(C)/C=C(C)/C=C/CC(C)C(O)C(C)/C=C(C)/C=C/C(O)C(C)c1cc(O)c(C2OC(CO)CC(O)C2O)c(=O)o1` (stereo unspecified), the IC50 in the experiment with Cryptococcus neoformans [15] and in the experiment on Saccharomyces cerevisiae [16] was 1.56 µg/mL (≈ 2.41 µM) throughout.

What is called MIC is the lowest concentration found to suppress growth. The term IC50 denotes the concentration that gives 50% inhibition.

These data come from ChEMBL document CHEMBL5260795, “Antifungal potential of marine natural products” (Eur J Med Chem, 2017).
